Test results reported in the supplement of paper PMC9912026.

System: A375
Experiment: pERK immunofluorescence, normalised; higher = more ERK phosphorylation
Settings: vemurafenib 0 µM, EGF 0 ng/mL, drug treatment time 24 h
Protocol: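 A375 or A375 CRISPRa-EGFR (A375_Cra_F7_5/13) cells were adapted for 24 h to a cobimetinib dose series, with or without 1 uM vemurafenib, then stimulated with EGF (100 ng/mL) or mock medium and fixed at the indicated times. pERK was measured by immunofluorescence as the population mean normalised to baseline, with the SD of technical replicates (n=2).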

O=C(c1ccc(F)c(F)c1Nc1ccc(I)cc1F)N1CC(O)([C@@H]2CCCCN2)C1 [cobimetinib]
pERK immunofluorescence
Settings	cobimetinib 31.62 pM	cobimetinib 0.0001 µM	cobimetinib 0.000316228 µM	cobimetinib 0.001 µM	cobimetinib 0.003162278 µM	cobimetinib 0.01 µM	cobimetinib 0.031622777 µM	cobimetinib 0.1 µM	cobimetinib 0.316227766 µM	cobimetinib 1 µM
time after EGF/mock 0.083 h	0.965	0.9579	0.873	0.658	0.313	0.16	0.1379	0.13	0.1264	0.1263
time after EGF/mock 0.5 h	0.9998	0.958	0.8944	0.679	0.306	0.157	0.135	0.1283	0.1262	0.126
time after EGF/mock 2 h	0.961	0.958	0.904	0.746	0.358	0.152	0.1311	0.1245	0.1235	0.1235
time after EGF/mock 8 h	0.97332	0.972	0.93	0.7507	0.312	0.132	0.1135	0.113	0.105	0.1046
time after EGF/mock 24 h	0.962	0.985	0.952	0.817	0.399	0.1129	0.10189	0.103	0.1021	0.0982
